≈ marks a conversion by molar mass, not a printed value.
What was measured:
in vivo [1] = details: rat
[2] = target: Serine-protein kinase ATM (Homo sapiens, UniProt Q13315)
[3] = Intrinsic clearance in human hepatocytes assessed per million cells
[4] = Intrinsic clearance in rat hepatocytes assessed per million cells
[5] = target: Serine/threonine-protein kinase ATR (Homo sapiens, UniProt Q13535)
[6] = Volume of distribution at steady state in rat; format: ADME, organism-based; details: in vivo, read-out: Vdss
[7] = Thermodynamic solubility of the compound in 0.1M aqueous phosphate buffer at pH 7.4 after 24 hrs by LC-UV analysis; format: physicochemical; details: read-out: Therm_solubility
in vitro = details: dog, MDCK-MDR1
Description: Efflux ratio of apparent permeability across basolateral to apical over apical to basolateral side in MDCK cells overexpressing MDR1

in vivo [8] = details: rat; remark: listed apart in the source
[9] = Apparent permeability across apical to basolateral side in MDCK cells overexpressing MDR1; format: ADME, cell-based, Canis lupus familiaris; details: dog
[10] = target: Voltage-gated inwardly rectifying potassium channel KCNH2 (Homo sapiens, UniProt Q12809); test: Inhibition of human ERG by electrophysiology assay
[11] = Buffer/octanol partition coefficient, log D of the compound at pH 7.4 by shake flask method; format: physicochemical
[12] = Oral bioavailability in rat; format: ADME, organism-based; details: in vivo
[13] = Apparent permeability across apical to basolateral side in human Caco2 cells; format: ADME, cell-based; details: Caco-2
[14] = Dissociation constant, pKa of the compound; format: physicochemical

Chain of Voltage-gated inwardly rectifying potassium channel KCNH2 (Q12809 whole entry): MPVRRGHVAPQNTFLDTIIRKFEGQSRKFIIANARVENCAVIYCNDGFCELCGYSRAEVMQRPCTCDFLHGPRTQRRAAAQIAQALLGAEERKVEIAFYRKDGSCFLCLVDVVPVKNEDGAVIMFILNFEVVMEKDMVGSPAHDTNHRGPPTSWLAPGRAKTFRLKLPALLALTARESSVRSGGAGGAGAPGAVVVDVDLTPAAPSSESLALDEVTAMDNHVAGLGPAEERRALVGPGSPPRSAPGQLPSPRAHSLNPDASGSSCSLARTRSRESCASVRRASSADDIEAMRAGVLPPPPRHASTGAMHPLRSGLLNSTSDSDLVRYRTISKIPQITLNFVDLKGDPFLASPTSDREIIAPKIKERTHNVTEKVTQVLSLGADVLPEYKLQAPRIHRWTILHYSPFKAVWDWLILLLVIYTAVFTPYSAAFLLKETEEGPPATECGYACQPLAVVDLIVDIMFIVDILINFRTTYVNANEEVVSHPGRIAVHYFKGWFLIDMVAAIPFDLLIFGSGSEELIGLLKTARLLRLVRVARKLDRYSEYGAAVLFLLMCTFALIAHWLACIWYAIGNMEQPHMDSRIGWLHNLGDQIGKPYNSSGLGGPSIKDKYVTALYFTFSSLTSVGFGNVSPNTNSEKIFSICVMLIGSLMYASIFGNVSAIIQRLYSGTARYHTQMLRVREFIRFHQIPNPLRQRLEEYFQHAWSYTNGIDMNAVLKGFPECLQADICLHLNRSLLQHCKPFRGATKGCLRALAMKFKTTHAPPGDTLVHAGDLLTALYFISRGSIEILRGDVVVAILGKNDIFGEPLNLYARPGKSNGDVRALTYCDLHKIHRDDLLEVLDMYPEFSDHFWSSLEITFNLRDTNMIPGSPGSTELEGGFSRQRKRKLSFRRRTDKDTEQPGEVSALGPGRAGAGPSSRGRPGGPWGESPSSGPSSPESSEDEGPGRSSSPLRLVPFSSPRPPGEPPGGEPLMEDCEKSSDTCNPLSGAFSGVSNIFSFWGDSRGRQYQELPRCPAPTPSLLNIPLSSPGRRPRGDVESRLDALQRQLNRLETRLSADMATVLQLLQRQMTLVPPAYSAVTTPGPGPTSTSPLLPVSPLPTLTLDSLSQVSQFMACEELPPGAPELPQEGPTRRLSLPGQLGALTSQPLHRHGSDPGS
Chain of Serine/threonine-protein kinase ATR (Q13535 whole entry): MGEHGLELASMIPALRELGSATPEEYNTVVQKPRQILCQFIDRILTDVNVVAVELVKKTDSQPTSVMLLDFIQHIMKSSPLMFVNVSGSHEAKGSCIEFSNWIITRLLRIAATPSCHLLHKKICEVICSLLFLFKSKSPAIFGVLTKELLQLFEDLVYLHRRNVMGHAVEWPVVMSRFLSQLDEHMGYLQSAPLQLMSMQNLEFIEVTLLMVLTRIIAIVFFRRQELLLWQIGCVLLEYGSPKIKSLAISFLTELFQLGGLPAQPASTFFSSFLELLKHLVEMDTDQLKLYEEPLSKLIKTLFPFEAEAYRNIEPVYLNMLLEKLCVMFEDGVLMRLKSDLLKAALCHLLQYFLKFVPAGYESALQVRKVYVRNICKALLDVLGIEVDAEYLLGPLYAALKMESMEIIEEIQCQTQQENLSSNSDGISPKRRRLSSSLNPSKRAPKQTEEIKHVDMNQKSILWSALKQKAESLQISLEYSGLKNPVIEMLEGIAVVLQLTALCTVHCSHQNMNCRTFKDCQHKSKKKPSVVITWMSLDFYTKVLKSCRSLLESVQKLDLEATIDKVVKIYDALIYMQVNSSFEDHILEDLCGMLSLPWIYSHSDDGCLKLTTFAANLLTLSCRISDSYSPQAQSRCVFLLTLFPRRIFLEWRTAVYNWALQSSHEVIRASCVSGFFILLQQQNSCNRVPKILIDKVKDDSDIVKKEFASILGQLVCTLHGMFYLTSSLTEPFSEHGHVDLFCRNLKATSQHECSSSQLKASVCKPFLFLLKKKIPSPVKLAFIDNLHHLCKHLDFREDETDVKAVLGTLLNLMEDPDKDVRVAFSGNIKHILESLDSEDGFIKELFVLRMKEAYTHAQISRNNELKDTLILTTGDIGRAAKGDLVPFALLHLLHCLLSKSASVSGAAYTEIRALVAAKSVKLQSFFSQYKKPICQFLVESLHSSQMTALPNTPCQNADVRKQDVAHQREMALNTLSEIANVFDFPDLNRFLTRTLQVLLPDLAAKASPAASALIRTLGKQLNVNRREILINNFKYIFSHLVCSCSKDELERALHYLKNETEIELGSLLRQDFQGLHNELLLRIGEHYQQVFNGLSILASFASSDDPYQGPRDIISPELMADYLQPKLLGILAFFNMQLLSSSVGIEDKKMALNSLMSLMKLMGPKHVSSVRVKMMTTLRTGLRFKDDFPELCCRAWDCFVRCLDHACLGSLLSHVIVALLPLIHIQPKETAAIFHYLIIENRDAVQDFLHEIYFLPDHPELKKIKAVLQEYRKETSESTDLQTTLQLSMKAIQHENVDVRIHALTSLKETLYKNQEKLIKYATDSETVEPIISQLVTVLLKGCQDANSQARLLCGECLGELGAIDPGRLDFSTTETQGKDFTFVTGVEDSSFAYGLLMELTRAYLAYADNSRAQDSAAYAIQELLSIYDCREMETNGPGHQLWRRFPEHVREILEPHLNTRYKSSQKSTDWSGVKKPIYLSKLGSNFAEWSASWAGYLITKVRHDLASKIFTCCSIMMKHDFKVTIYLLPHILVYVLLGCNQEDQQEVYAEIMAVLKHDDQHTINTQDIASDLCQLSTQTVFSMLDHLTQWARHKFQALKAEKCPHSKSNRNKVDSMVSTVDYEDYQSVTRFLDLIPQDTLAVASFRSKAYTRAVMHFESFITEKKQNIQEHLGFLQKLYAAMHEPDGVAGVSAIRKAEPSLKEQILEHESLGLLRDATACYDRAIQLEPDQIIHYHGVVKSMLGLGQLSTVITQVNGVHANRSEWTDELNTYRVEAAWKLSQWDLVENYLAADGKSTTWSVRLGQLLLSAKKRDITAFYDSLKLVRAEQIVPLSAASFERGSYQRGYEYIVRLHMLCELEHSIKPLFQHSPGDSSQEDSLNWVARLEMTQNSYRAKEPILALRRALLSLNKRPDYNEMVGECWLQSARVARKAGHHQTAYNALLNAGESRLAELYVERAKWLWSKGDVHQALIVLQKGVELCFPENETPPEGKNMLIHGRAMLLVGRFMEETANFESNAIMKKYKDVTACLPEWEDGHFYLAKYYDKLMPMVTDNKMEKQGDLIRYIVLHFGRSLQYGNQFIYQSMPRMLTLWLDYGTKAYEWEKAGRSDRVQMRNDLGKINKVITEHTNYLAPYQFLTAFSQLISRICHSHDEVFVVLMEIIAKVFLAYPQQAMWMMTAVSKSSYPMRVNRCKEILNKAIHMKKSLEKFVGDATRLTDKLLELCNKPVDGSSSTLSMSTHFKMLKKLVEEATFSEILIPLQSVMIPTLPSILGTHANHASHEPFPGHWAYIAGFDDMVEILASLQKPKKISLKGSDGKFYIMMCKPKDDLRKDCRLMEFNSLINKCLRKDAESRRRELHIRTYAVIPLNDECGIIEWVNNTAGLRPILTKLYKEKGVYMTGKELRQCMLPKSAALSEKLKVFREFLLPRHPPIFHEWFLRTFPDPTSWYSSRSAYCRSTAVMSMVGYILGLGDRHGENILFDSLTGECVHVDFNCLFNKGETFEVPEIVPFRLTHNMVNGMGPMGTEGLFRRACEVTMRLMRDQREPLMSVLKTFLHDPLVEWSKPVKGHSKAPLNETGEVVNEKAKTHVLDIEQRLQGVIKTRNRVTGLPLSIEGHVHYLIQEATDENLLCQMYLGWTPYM

clearance (in vivo [1]) | IC50 [2] | hepatocyte CLint [3] | hepatocyte CLint [4] | IC50 [5] | Vd [6] | solubility thermodynamic at 24 h [7] | efflux ratio (in vitro) | half-life (in vivo [8]) | Papp A→B [9] | logD [11] | bioavailability [12] | Papp A→B [13] | pKa [14] | SMILES | IC50 [10]
22.5 mL/min/kg | 0.1 µM | 8.8 µL/min/1e6 cells | 4.5 µL/min/1e6 cells | > 30 µM | 0.98 L/kg | 37 µM (≈ 15.6 µg/mL) | 0.4 | 2.7 h | 38 ×10⁻⁶ cm/s | 2.7 | > 100% | – | – | COCc1ccc(-c2cc3c(cc2F)ncc2c3n([C@H]3C[C@@H](OC)C3)c(=O)n2C)cn1 | 9 µM
– | – | < 4 µL/min/1e6 cells | – | – | – | > 610 µM | – | – | 4.8 ×10⁻⁶ cm/s | – | – | 15 ×10⁻⁶ cm/s | – | NC(=O)c1cnc2ccc(-c3cccnc3)cc2c1NC1CCOCC1 | –
– | – | < 4.9 µL/min/1e6 cells | 9.4 µL/min/1e6 cells | – | – | 17 µM (≈ 6.13 µg/mL) | – | – | 30 ×10⁻⁶ cm/s | 2.2 | – | 60 ×10⁻⁶ cm/s | – | Cn1c(=O)n(C2CCOCC2)c2c3cc(-c4cccnc4)ccc3ncc21 | 11 µM
– | > 28 µM | – | 28 µL/min/1e6 cells | > 30 µM | – | 980 µM (≈ 494 µg/mL) | – | – | – | 1.4 | – | – | 6.7 | CO[C@H]1C[C@@H](n2c(=O)n(C)c3cnc4ccc(-c5ccc(OCCCN6CCOCC6)nc5)cc4c32)C1 | –
